Assay: pKaH (pKa of the conjugate acid) by titration with sodium hydroxide aqueous solution
Assay type: physicochemical
Settings: water/methanol=50/50 (volume ratio), 25° C.; for pKaH of compound B: Table 2
Description: The pKa can be calculated by dropwise adding a 0.01 mol/L sodium hydroxide aqueous solution to a mixed solution of water/methanol=50/50 (in terms of volume ratio) of a measurement sample (a conjugate acid of the compound B) and reading the amount of the sodium hydroxide aqueous solution that has been dropwise added up to the half-equivalent point.

Row | SMILES | pKaH | pKaH of compound B
1 | c1ccc(-c2ccnc3ccccc23)cc1 [4-Phenylquinoline] | 4.3 | 
2 | Cc1ccnc2ccccc12 [4-methylquinoline] |  | 5.1
3 | Cc1ccc2ccccc2n1 [2-methylquinoline] |  | 4.8
4 | Cc1cc(C)c2ccccc2n1 [2,4-dimethylquinoline] |  | 5.7
5 | Cc1cc2ccccc2cn1 [3-methylisoquinoline] |  | 5.2
6 | c1ccc2ncccc2c1 [Quinoline] |  | 4.2
7 | c1ccc2cnccc2c1 [Isoquinoline] |  | 4.7
